Reference: PubChem BioAssay AID489034 (Sanford-Burnham Center for Chemical Genomics, 2010)
Calls of active or inactive are those of the source.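 How the source made its calls: active means mean IC50 at or below a set limit; inactive means the rest.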

System: 697 B-cell NF-kB luciferase reporter, PMA/ionomycin, 16 h
Assay: inhibitors of antigen receptor-driven NF-kB, dose response, 697 B cells, PMA/ionomycin, luminescence (AID 489034)

Structure (SMILES)	IC50
CN(C(=O)OC(C)(C)C)c1ccc(-c2nc3ccccc3s2)cc1	< 0.16 µM
O=C(CCl)N=c1sccn1Cc1ccc(Cl)cc1Cl	< 0.16 µM
Cn1nccc1C(=O)NC1CCCc2c1cnn2-c1ccc(F)cc1F (configuration not stated)	> 80 µM (inactive)
CC(=O)OC(C)(C)/C=C/C(=O)[C@](C)(O)C1[C@H](O)C[C@@]2(C)C3CC=C4C(C[C@H](O)C(=O)C4(C)C)[C@]3(C)C(=O)C[C@]12C (some centres not stated)	7.02 µM
O=C(Nc1ccc(Cl)cc1)Nc1cccc(C(=O)O)c1	2.22 µM
COc1cc(NC(C)CCCN)c2ncccc2c1 (configuration not stated)	> 80 µM (inactive)
COC1=CC(=O)[C@]2(C=C1OC)OC[C@@H]1Oc3c(ccc4c3C=CC(C)(C)O4)C(=O)[C@@H]12	47.7 µM (inactive)
COc1ccc(C(=O)CN2C(=O)c3ccccc3S2(=O)=O)cc1	0.691 µM
O=C(CCl)N=c1sccn1Cc1ccccc1Cl	0.222 µM
O=C(O)CSCC(=O)Nc1ccc(C2CCCCC2)cc1	0.776 µM
COc1cc(SC)ccc1C(=O)Nc1nc2ccccc2[nH]1	< 0.16 µM
COc1cc2c(cc1OC)[C@@H]1C(=O)c3ccc4c(c3O[C@@H]1CO2)C[C@H](C(C)C)O4	> 80 µM (inactive)
CCC(C)(C)c1ccc(OCCCC[n+]2ccc(C)cc2)c(C(C)(C)CC)c1	22.3 µM (inactive)
Cc1ccc(Cn2ccsc2=NC(=O)CCl)cc1	0.489 µM
CCOc1ccc(NC(=O)Nc2cccc(C(=O)O)c2)cc1	0.504 µM
Cc1ccnc(NC(=O)CCCOc2cc(=O)n(C)c3ccccc23)c1	8.54 µM
O=S(=O)(NCC1CCCO1)c1ccc(-c2ccc(S(=O)(=O)NCC3CCCO3)cc2)cc1 (configuration not stated)	> 80 µM (inactive)
COc1ccc(C[C@H]2NC[C@H](O)[C@H]2OC(C)=O)cc1	< 0.16 µM
COc1ccccc1C(=O)Nc1nc(-c2ccc(S(=O)(=O)N3CCOCC3)cc2)cs1	7.17 µM
CC1CCN(c2nc3ccc(C(=O)O)cc3s2)CC1	1.33 µM
COC(=O)CCn1nnc(-c2ccc(C(C)C)cc2)n1	< 0.16 µM
COc1ccc(C(=O)Nc2nc3ccccc3s2)c(OC)c1	0.275 µM
C[C@H](NC(=O)c1nc[nH]c1C(=O)N[C@@H](C)C(=O)OCc1ccccc1)C(=O)OCc1ccccc1	> 80 µM (inactive)
C=C1C(=O)O[C@@H]2C[C@@H](C)[C@@H]3C=CC(=O)[C@@]3(C)[C@@H](OC(=O)CC(=O)O[C@H]3[C@@H]4C(=C)C(=O)O[C@@H]4C[C@@H](C)[C@@H]4C=CC(=O)[C@]43C)[C@H]12	0.377 µM

Structure (SMILES)	IC50
Cc1ccc(C(=O)Nc2cccc(C(F)(F)F)c2)cc1NC(=O)c1ccno1	4.09 µM
COc1ccccc1C(=O)Nc1nc2ccccc2[nH]1	0.454 µM
CCOc1cc(S(=O)(=O)NCc2ccncc2)ccc1Cl	> 80 µM (inactive)
COc1ccc(CNc2ncc(-c3ccc(F)cc3)n2C)c2ccccc12	1.57 µM
CCOc1ccc(-c2cc(CCCC(=O)Nc3cccc(OC)c3)no2)cc1	11.3 µM
Cc1cc(NNC(=O)Nc2cccc(Cl)c2)nc2c1c(C)nn2C	> 80 µM (inactive)
Cc1cc(C(=O)COC(=O)c2ccccc2O)c(C)n1CC1CCCO1 (configuration not stated)	0.267 µM
C=CC(=O)Nc1ccc(Nc2nc(NC3CCC(N(C)C)CC3)nc3c2ncn3C(C)C)cc1 (configuration not stated)	0.593 µM
COc1cccc2c1C(=O)c1c(O)c3c(c(O)c1C2=O)C[C@@](O)(C(=O)CO)C[C@@H]3O[C@H]1C[C@H](N)[C@@H](O)[C@H](C)O1	3.53 µM
CC(C)(C)c1ccc(C(=O)N2CCCCCC2=O)cc1	0.579 µM
N#CC(c1cccc(Cl)c1)c1ccc2c(C(F)(F)F)cc(C(F)(F)F)nc2n1 (configuration not stated)	> 80 µM (inactive)
COc1ccc(CN(C)c2ccc(S(=O)(=O)N3CCN(C)CC3)cc2[N+](=O)[O-])cc1OC	> 80 µM (inactive)
Cc1nn(-c2ccccc2)c(C)c1/C=N/NC(=O)c1cc(-c2cccs2)[nH]n1	21.5 µM (inactive)
Cc1cc(CSc2ccccc2)ccc1NC(=O)c1ccc(CN2CCOCC2)cc1	> 80 µM (inactive)
C[C@@H]1O[C@@H](O[C@@H]2C=C3CCC4C(CC[C@]5(C)[C@@H](c6ccc(=O)oc6)CC[C@]45O)[C@@]3(C)CC2)[C@H](O)[C@H](O)[C@H]1O (some centres not stated)	< 0.16 µM
COc1ccc(CCNc2ncnc3sccc23)cc1OC	77.4 µM (inactive)
CC1CCCN(c2ccc([N+](=O)[O-])cc2C(=O)c2ccccc2)C1 (configuration not stated)	> 80 µM (inactive)
O=C(CN1C(=O)c2ccccc2S1(=O)=O)c1ccc2c(c1)OCCCO2	< 0.16 µM
CC1(c2ccc3ccccc3c2)NC(=O)N(CC(=O)N2CCN(Cc3ccc(C#N)cc3)CC2)C1=O (configuration not stated)	> 80 µM (inactive)
CCCCCCCCCCCCn1ccc(=N)cc1	9.19 µM
CC(C)(O)c1[nH]c2ccc(C#N)cc2c1C(C)(C)O	> 80 µM (inactive)
CCCCCCCCCn1ccc(=N)cc1	46.2 µM (inactive)
c1ccc(-c2ccc(-c3nc(-c4ccccn4)no3)cc2)cc1	0.967 µM
COc1cc(CSc2nnnn2-c2ccc(C)cc2)cc(OC)c1OC	> 80 µM (inactive)

Structure (SMILES)	IC50
CC(=O)O[C@H]1[C@H]2O[C@]23[C@@H]2CC[C@]4(O)C[C@@H](O)CC[C@]4(C)C2CC[C@]3(C)[C@H]1c1ccc(=O)oc1 (some centres not stated)	0.223 µM
Nc1ncnc2c1ccn2[C@@H]1O[C@H](CO)[C@@H](O)[C@H]1O	1.01 µM
O=C(Nc1nc(-c2ccc(F)c(F)c2)cs1)c1ccc(OCC2CCCO2)cc1 (configuration not stated)	> 80 µM (inactive)
O=C1/C(=C/c2ccccc2)C[C@@]2(O)[C@H]3Cc4ccc(O)c5c4[C@@]2(CCN3CC2CC2)C1O5 (some centres not stated)	6.2 µM
CCN1/C(=C\c2ccc3ccccc3[n+]2CC)Sc2cc(C)ccc21	> 80 µM (inactive)
CCCCCCCCNc1ncnc2ccccc12	> 80 µM (inactive)
Cc1ccc(C(=O)CN2C(=O)c3ccccc3S2(=O)=O)cc1	1.33 µM
N#Cc1c(NC(=O)CSc2ncn[nH]2)sc2c1CCCCC2	0.283 µM
O=C(c1ccc(Br)cc1)c1cc([N+](=O)[O-])ccc1N1CCCCC1	> 80 µM (inactive)
CN(C)c1cc[n+](CC(=O)c2ccc(-c3ccccc3)cc2)cc1	47.4 µM (inactive)
CCOc1ccc(-n2c(-c3ccc(OC)cc3)c[n+]3c2CCCCC3)cc1	> 80 µM (inactive)
Cc1cc(Cl)c(S(=O)(=O)N2CCN(c3ccc(F)cc3)CC2)cc1OCC(=O)NC1CCCCC1	> 80 µM (inactive)
Cn1nc(CC(=O)Nc2ccc3c(c2)OCCO3)c2ccccc2c1=O	68.7 µM (inactive)
COc1cc([N+](=O)[O-])cc(/C=N/NC(=O)c2ccc(NC(=O)c3ccc(C)cc3)cc2)c1O	1.02 µM
O=C(Nc1cccc(C(=O)O)c1)Nc1ccc2c(c1)OCO2	1.14 µM
CC1CCc2c(sc(NC(=O)CSc3ncn[nH]3)c2C#N)C1 (configuration not stated)	0.209 µM
CCCCCn1c(=O)[nH]c2cc(C(=O)N3CCN(Cc4ccc5c(c4)OCO5)CC3)ccc2c1=O	> 80 µM (inactive)
COc1cc2nc(NC(=O)c3ccccc3)sc(=O)c2cc1OC	0.444 µM
Nc1nc(Cl)nc2c1ncn2C1CC(O)C(CO)O1 (configuration not stated)	> 80 µM (inactive)
COc1cccc(NC(=O)Nc2cccc(C(=O)O)c2)c1	1.62 µM
CCCCCCCCCCOC(=O)Cn1c(COc2ccccc2OC)[n+](C)c2ccccc21	> 80 µM (inactive)
CCN(CC)S(=O)(=O)c1ccc(Oc2ccc(S(=O)(=O)N(CC)CC)cc2)cc1	> 80 µM (inactive)
CCCCCNC(=O)c1ccc2c(=O)n(CC3CCCO3)c(=O)[nH]c2c1 (configuration not stated)	> 80 µM (inactive)
COc1ccc(-c2cc3nc(C)n(N)c(=O)c3s2)cc1	0.673 µM
